The NIST ThermoML archive (doi:10.1021/je300557g)

Assay: xn = mol fraction of the nth substance listed
Conditions: 101 kPa, Liquid; for mass density: Vibrating tube method

CCCC[n+]1cccc(C)c1.F[B-](F)(F)F [1-butyl-3-methylpyridinium tetrafluoroborate] + CO
Conditions | kinematic viscosity, 293.15 K [m2/s] | kinematic viscosity, 303.15 K [m2/s] | kinematic viscosity, 313.15 K [m2/s] | kinematic viscosity, 323.15 K [m2/s] | mass density, 293.15 K [kg/m3] | mass density, 303.15 K [kg/m3] | mass density, 313.15 K [kg/m3] | mass density, 323.15 K [kg/m3]
x1 = 0.0481 | 1.03e-06 | 8.95e-07 | 7.88e-07 | 7e-07 | 876.92 | 868.11 | 858.9 | 850
x1 = 0.0975 | 1.45e-06 | 1.22e-06 | 1.06e-06 | 9.17e-07 | 937.91 | 929.46 | 920.91 | 912.45
x1 = 0.1973 | 2.72e-06 | 2.2e-06 | 1.88e-06 | 1.61e-06 | 1017.57 | 1009.42 | 1001.41 | 993.31
x1 = 0.3001 | 4.45e-06 | 3.44e-06 | 3.04e-06 | 2.54e-06 | 1067.85 | 1059.92 | 1052.02 | 1044.13
x1 = 0.4013 | 7.03e-06 | 5.64e-06 | 4.73e-06 | 3.95e-06 | 1101.07 | 1093.38 | 1085.61 | 1077.93
x1 = 0.4969 | 1.2e-05 | 9.04e-06 | 7.23e-06 | 5.68e-06 | 1123.81 | 1116.36 | 1108.79 | 1101.32
x1 = 0.5985 | 1.98e-05 | 1.45e-05 | 1.08e-05 | 8.38e-06 | 1142.18 | 1134.95 | 1127.63 | 1120.38
x1 = 0.6972 | 3.36e-05 | 2.31e-05 | 1.69e-05 | 1.27e-05 | 1156.2 | 1149.14 | 1142.07 | 1134.99
x1 = 0.7942 | 5.92e-05 | 3.53e-05 | 2.51e-05 | 1.76e-05 | 1167.41 | 1160.48 | 1153.59 | 1146.64
x1 = 0.8427 | 7.8e-05 | 4.59e-05 | 3.12e-05 | 2.13e-05 | 1172.3 | 1165.41 | 1158.59 | 1151.69
x1 = 0.8978 | 0.00011 | 6.28e-05 | 4.03e-05 | 2.67e-05 | 1177.37 | 1170.53 | 1163.75 | 1156.91
x1 = 0.9689 | 0.000171 | 9.3e-05 | 5.65e-05 | 3.61e-05 | 1183.27 | 1176.47 | 1169.72 | 1162.95

CCCC[n+]1cccc(C)c1.F[B-](F)(F)F [1-butyl-3-methylpyridinium tetrafluoroborate] + CCO
Conditions | kinematic viscosity, 293.15 K [m2/s] | kinematic viscosity, 303.15 K [m2/s] | kinematic viscosity, 313.15 K [m2/s] | kinematic viscosity, 323.15 K [m2/s] | mass density, 293.15 K [kg/m3] | mass density, 303.15 K [kg/m3] | mass density, 313.15 K [kg/m3] | mass density, 323.15 K [kg/m3]
x1 = 0.0521 | 2.07e-06 | 1.68e-06 | 1.4e-06 | 1.18e-06 | 855.55 | 847.17 | 838.85 | 830.02
x1 = 0.0964 | 2.67e-06 | 2.12e-06 | 1.75e-06 | 1.47e-06 | 900.79 | 892.48 | 884.31 | 875.68
x1 = 0.1964 | 4.31e-06 | 3.36e-06 | 2.71e-06 | 2.24e-06 | 977.43 | 969.49 | 961.48 | 953.37
x1 = 0.321 | 6.84e-06 | 5.15e-06 | 4.19e-06 | 3.39e-06 | 1041.5 | 1033.92 | 1026.2 | 1018.52
x1 = 0.3936 | 9.28e-06 | 6.82e-06 | 5.54e-06 | 4.49e-06 | 1068.86 | 1061.42 | 1053.9 | 1046.35
x1 = 0.4941 | 1.44e-05 | 1.03e-05 | 8.05e-06 | 6.24e-06 | 1098.93 | 1091.66 | 1084.35 | 1076.96
x1 = 0.59 | 2.21e-05 | 1.5e-05 | 1.15e-05 | 8.86e-06 | 1121.77 | 1114.64 | 1107.46 | 1100.21
x1 = 0.691 | 3.66e-05 | 2.32e-05 | 1.76e-05 | 1.28e-05 | 1141.6 | 1134.58 | 1127.48 | 1120.38
x1 = 0.7952 | 6.13e-05 | 3.68e-05 | 2.61e-05 | 1.81e-05 | 1158.8 | 1151.88 | 1144.87 | 1137.9
x1 = 0.85 | 8.37e-05 | 4.86e-05 | 3.28e-05 | 2.23e-05 | 1166.81 | 1159.93 | 1152.99 | 1146.06
x1 = 0.8992 | 0.000111 | 6.25e-05 | 4.03e-05 | 2.67e-05 | 1173.47 | 1166.61 | 1159.75 | 1152.86
x1 = 0.9477 | 0.00015 | 8.29e-05 | 5.08e-05 | 3.29e-05 | 1179.57 | 1172.74 | 1165.95 | 1159.11
